From ChEMBL document CHEMBL3507680, “University of Dundee, Gates Library screen for HepG2 cell viability” come the findings set out here.

A short description of the data set: Human HepG2 cell viability assay in 384 well format. It counts as toxicity, cell-based. Set-up: dose 125 nL, time 70.5 hour; cytotoxicity at 70.5 h: concentration not given beside the values. The conditions noted are these: HepG2 cells, read-out: Inhibition.
Take `Cc1nonc1C(=O)N1CCc2c(ncn2CCc2ccccc2)C1`: the cytotoxicity at 70.5 h was -7.1%. In the case of `CN(C)c1nccc(N(C)C2CCN(CC3CCOC3)CC2)n1` (stereo unspecified), the cytotoxicity at 70.5 h was -4.93%.

For `COc1c(C)cnc(CN(C)C2CCCCC2)c1C`, the cytotoxicity at 70.5 h turned out to be 8.25%. The result for `Cc1cnn(CCNCC(=O)N(C)C(C)c2ccccc2)c1` (stereo unspecified) reads -10.5%; that for `CCN1CCN(c2ccc(NC(=O)CC(C)C)c(C)c2)CC1`, -20.9%. Then `CNC(=O)NC(=O)C(C)N1CCN(c2ccc(C#N)cc2F)CC1` (stereo unspecified), with -12.9%. On to `N#Cc1c(F)cccc1N1CCCC(C(=O)Nc2nncs2)C1` (stereo unspecified), for which the cytotoxicity at 70.5 h is -16.9%. The result for `Cc1ccc(OCCCNC(=O)CN(C)c2ccc(C#N)cn2)cc1` reads 3.18%; that for `COCCNC(=O)NC(=O)CNc1c(F)cccc1N1CCCC1`, -16.6%. Then `COc1c(C)cnc(CN(C)C2CCN(C3CCOCC3)CC2)c1C`, with -0.744%. Then `Cc1cnn(CCNCC(=O)NC(c2ccccc2)c2ccccc2)c1`, with -16%; and `CC1(C)Cc2ccc(C(=O)NC3CCOCC3)c(O)c2O1`, with 7.2%; and `O=C(Nc1cccs1)NC(CCCO)c1ccccc1` (stereo unspecified), with -17.7%. Consider `CCNC(=O)N1CCc2ccc(NC(=O)NCC3CC3)cc21`, for which the cytotoxicity at 70.5 h is -12.1%.

Turning to `COc1ccccc1C(C)(C)NC(=O)NCCC(=O)NC1CCCC1`, the cytotoxicity at 70.5 h is -12.5%. Turning to `COc1ncccc1NC(=O)NC(CCCO)c1ccccc1` (stereo unspecified), the cytotoxicity at 70.5 h came to 11.2%. Turning to `O=C(Nc1ccccn1)NC(CCCO)c1ccccc1` (stereo unspecified), the cytotoxicity at 70.5 h is -5.11%.

`Cn1cccc1C(=O)NC1(C(=O)NCC2CC2)CCCC1`: the cytotoxicity at 70.5 h is -11.4%. The result for `O=C1C(Nc2nccn3cnnc23)CCCN1c1ccccc1Cl` (stereo unspecified) reads -2.45%.

Regarding `O=C1CC[C@H](C(=O)Nc2cnn(-c3ccccc3Br)c2)N1`, the cytotoxicity at 70.5 h was -16.8%.

Turning to `Cc1cc(F)ccc1N1CCCC(Nc2nccn3cnnc23)C1=O` (stereo unspecified), the cytotoxicity at 70.5 h was -2.63%. The result for `N#Cc1ccc(F)cc1Cn1cnc(C2CCC2)cc1=O` reads -9.04%; that for `N#Cc1cc(Cn2cnc(C3CCC3)cc2=O)ccc1F`, -15.4%. Then `CC(C)(C)c1nc(NS(=O)(=O)c2ccccc2F)no1`, with -18.1%; and `CC(C)(C)c1nc(NS(=O)(=O)c2cccc(F)c2)no1`, with -8.66%.

Turning to `CCN1CCCN(C(=O)c2ccc(NC(=O)CC(C)C)c(C)c2)CC1`, the cytotoxicity at 70.5 h was -12.9%. With `COC(=O)c1ccc(CN(C)C(=O)c2cnsn2)cc1`, the cytotoxicity at 70.5 h was -14.6%. In the case of `c1cc(CN2CCCCC2)cc(NCc2cc[nH]n2)c1`, the cytotoxicity at 70.5 h is 7.51%. The result for `Cc1ccccc1CN(CC(=O)O)C(=O)COCC1CC1` reads 0.683%. Then `CC(C)n1ncc2c1NC(=O)C(C#N)C21CCCC1` (stereo unspecified), with -11.3%; and `CCn1ncc2c1NC(=O)C(C#N)C21CCCC1` (stereo unspecified), with -11.6%; and `N#CC1C(=O)Nc2c(cnn2C2CCCC2)C12CCCCC2` (stereo unspecified), with -1.92%. Then `CC(C)C(NC(=O)c1ccc(Cl)cc1Cl)C(=O)Nc1cnn(C)c1` (stereo unspecified), with 4.14%. In the case of `O=C(NCc1ccnc(O)c1)NCC1CCCC1`, the cytotoxicity at 70.5 h is -1.59%. For `COCC(=O)NCCc1ccc(I)s1`, the cytotoxicity at 70.5 h was -8.78%. In the case of `CC(C)COCC(NC(=O)CSc1nnc[nH]1)c1ccco1` (stereo unspecified), the cytotoxicity at 70.5 h is -12.5%.

With `CC(C)(C)C(O)CN1CCN(CC(=O)NC2CCOCC2)CC1` (stereo unspecified), the cytotoxicity at 70.5 h was -7.28%.

As to `CCOc1cc(NC(=O)NCCn2cnnc2CC)ccc1C`, the cytotoxicity at 70.5 h is -6.28%.

Take `CCc1nc2n(n1)CCCC2NC(=O)Nc1ccc(F)cc1C#N` (stereo unspecified): the cytotoxicity at 70.5 h worked out at 1.79%. As for `CC(C)(C)OC(=O)NC1(c2noc(-c3ccoc3)n2)CCC1`, the cytotoxicity at 70.5 h is -6.71%. Then `CCc1nc2n(n1)CCCC2NC(=O)Nc1cccc(F)c1F` (stereo unspecified), with 4.24%; and `CNC(=O)CC1CCN(C(=O)Nc2ccc(-c3cc[nH]n3)cc2)CC1`, with -4.66%. Then `O=S(=O)(Cc1ccccc1)NCc1ccnc(O)c1`, with 0.635%. On to `O=S(=O)(CC1CCCCC1)NCc1ccc(O)nc1`, for which the cytotoxicity at 70.5 h was -10.2%. With `CN1CCN(S(C)(=O)=O)Cc2cccnc21`, the cytotoxicity at 70.5 h is -2.81%. Then `c1cc(CN2CCCC3(CCN(CC4CCCO4)CC3)C2)n[nH]1` (stereo unspecified), with -6.85%; and `O=S(=O)(C1CC1)N1CCC2(CN(c3ncccn3)C2)C1`, with 9.33%; and `Cc1nc(CO[C@H]2CN(C(=O)c3cccnc3)[C@@H]3COC[C@H]23)cs1`, with -6.99%. Then `Cn1cnc2c(-c3cccnc3)nc(C3CCN(S(C)(=O)=O)CC3)cc21`, with -8.84%; and `COc1ccc(-c2nc(C3CCNCC3)cc3c2ncn3C)cc1`, with 11.7%; and `COc1cc(N2CCCC3(CCN(c4cccnc4)C3=O)C2)ncn1` (stereo unspecified), with 19.9%. The result for `CS(=O)(=O)N1C[C@H](C(=O)Nc2cccnc2)[C@@H]2CCO[C@@H]2C1` reads -4.86%; that for `Cc1cnc(C(=O)N2CCC3(CCN3Cc3ccc(F)cc3)C2)cn1` (stereo unspecified), -0.513%; that for `O=c1ccc2c(n1CC1CC1)CCC(NCc1cccs1)C2` (stereo unspecified), -10.4%. For `Cn1cc(-c2ncnc3c2CCN(CC2CCOC2)CC3)cn1` (stereo unspecified), the cytotoxicity at 70.5 h is -7.49%. `Cc1ccc(CN2CC[C@@H]3[C@@H]2CCN3C(=O)Cc2cccs2)o1`: the cytotoxicity at 70.5 h is -5.34%. The result for `CCc1cnc(N2CCc3cc(C(=O)NC)c(N(C)C)nc3CC2)nc1` reads -13.6%.

Turning to `Cc1ccc(CN2CC[C@H]3OCC[C@@]3(COCC(=O)N(C)C)C2)s1`, the cytotoxicity at 70.5 h worked out at 15.2%. The result for `Fc1cccc(-c2nnn3c2COC(CNCc2nccs2)C3)c1` (stereo unspecified) reads 14.6%; that for `COC[C@@]12CCO[C@@H]1CCN(Cc1ccc(C)s1)C2`, 15.9%. Turning to `O=C([C@@H]1COC[C@H]2CN(C3CCCC3)C[C@H]21)N1CCC(F)CC1`, the cytotoxicity at 70.5 h was -1.78%. The result for `COC[C@@]12CCO[C@@H]1CCN(Cc1ccccc1OC)C2` reads -12.9%; that for `c1ccc(NC[C@@H]2CCC[C@@H]3CN(c4ncccn4)C[C@@H]32)nc1`, -13.7%.

For the compound `CC(C)COC1CC2(CCN(C(=O)Cc3ccccn3)CC2)C1`, the cytotoxicity at 70.5 h was -11.8%. The result for `O=C([C@H]1COC[C@H]2CN(C3CCCCC3)C[C@H]21)N1CCOCC1` reads -9.52%; that for `Cn1cc(-c2ncc3c(c2C(=O)O)CCN(Cc2ccccn2)C3)cn1`, -1.31%. The result for `COCC1CN(CCOc2ccc(Cl)cc2)Cc2c1cnn2C` (stereo unspecified) reads -6.25%. Take `COCCn1c2c(ccc1=O)CC(NCc1cccnc1OC)CC2` (stereo unspecified): the cytotoxicity at 70.5 h is -13.6%.

On to `Cc1cccc(CN2CC[C@@H]3[C@@H]2CCN3C(=O)Cc2ccsc2)n1`, for which the cytotoxicity at 70.5 h is -22.6%. Then `CN(C)C[C@]12COC[C@H]1CN(Cc1ccc3c(c1)OCO3)C2`, with -2.79%. For `Cc1ccc(CN2CC[C@@H]3[C@@H](CO[C@H]3CN(C)C)C2)o1`, the cytotoxicity at 70.5 h was -5.5%.
